Measured values: US20020042079A1, “METHODS AND AGENTS FOR MEASURING AND CONTROLLING MULTIDRUG RESISTANCE” (priority 1994, published 2002)
Entries after “also recorded” stand apart in the source; their conditions may differ.

Key:
[1] = test system: isolated microsomes of MCF-7/ADR cells; assay: In vitro acidification of total microsomal preparation (acridine orange quenching); settings: for rate of dissipation of the pre-existing pH gradient: added 10 minutes after ATP, Bafilomycin A1 100 nM, compared with tamoxifen
Description: Acidification of Cellular Microsomes: The acidification of cellular microsomes was assayed spectrophotometrically. Two different approaches were used for assaying acidification: Acidification of the total microsomal preparation using quenching of acridine orange and acidification of the recycling endosomes by monitoring the fluorescence from a microsomal preparation from cells that had previously endocytosed FITC-transferrin.
The homogenate was centrifuged twice for 10 minutes at 3000 g to remove unbroken cells and nuclei. The supernatant was layered over 20 ml of 0.5 M sucrose (20 mM HERES (pH 7.4), 1 mM DTT, 1 mM EDTA, 1×protease inhibitor mix) and 1 ml of 2 M sucrose and centrifuged for one hour at 100,000 g (Beckman Ti60 Rotor). Microsomes are collected at the 0.5 M and 2 M interface.
Acidic vesicles accumulate acridine orange to high concentrations resulting in the self quenching of the dye. This accumulation causes depletion of the acridine orange from the extra-vesicular space, and a decrease of the overall fluorescence of the sample. […] The sample was allowed to equilibrate by stirring for 30 minutes at 25° C. After 5 minutes of recording to establish baseline, 1 mM Tris-ATP was added to begin acidification (100 mM stock, titrated to pH 7.4 with 1 M Tris-base before use).

MCF-7/ADR cells [2] = assay: Acridine orange labeling of acidic compartments (confocal microscopy); assay type: cell-based, human; settings: for red-orange acridine orange fluorescence of cytoplasmic organelles after addition of agent: MCF-7/ADR, 30 minutes, Monensin 5 μM, Bafilomycin A1 500 nM, concanomycin 100 nM, Tamoxifen 5 or 10 μM, verapamil 10 μM, cyclosporin A 10 μM
Description: Confocal fluorescence imaging of intracellular pH and acidic compartments: Acridine orange (2 μg/ml media; 4 mg/ml stock in water) was added directly to the chambers and the cells were incubated with the dye at 37° C. for 30 minutes. Cells in the presence of acridine orange were then examined at room temperature with an Insight Bilateral Laser Scanning Confocal Microscope (Meridian Instruments, Okemos, Mich.). […] Optical sections of the fluorescent sample were recorded at 0.5 micron intervals. […] The acetoxymethylester derivative of SNAFL-calcein (15 μg/ml) (Molecular Probes, Eugene, Oreg.) (a radiometric fluorescent probe for pH) was added to both MCF-7 and MCF-7adr cells. The ester linked fluorescent probe enters the cell passively where the esters are hydrolyzed by esterases located in the cytoplasm and intracellular vesicles. The SNAFL-calcein is then ionically trapped within the cytoplasm and vesicular compartments. […] These images were then compared to standard curves that were obtained in the following manner. […] Cells treated with monensin were exposed to the drug (10 μg/ml of media) for 30 minutes at 37° C. prior to labeling with SNAFL-calcein as described above. All cells were examined at room temperature.
The green and red emissions were collected using two photomultiplier tubes. […] Green emission was next passed through a 530 nm/30 nm bandpass filter and collected by the on-axis photomultiplier tube. Red emission was passed through a 610 nm longpass filter and collected by the 90° side photomultiplier tube.
Optical sections of the fluorescent samples were recorded at 0.5 micron intervals with a 60×oil immersion objective.

MCF-7/ADR cells [3] = assay: Subcellular distribution of Adriamycin fluorescence (confocal microscopy); assay type: cell-based, human; settings: for Adriamycin distribution after addition of agent: MCF-7/ADR, Monensin 5 μM, Bafilomycin A1 500 nM, concanomycin 100 nM, Tamoxifen 10 μM (50 μM in Example 3), verapamil 10 μM, cyclosporin 5 μM
Description: Adriamycin can be excited between 350 nm-550 nm and emits between 400 nm-700 nm.
Labeling of Cells with Adriamycin: Cells were loaded with Adriamycin (10 μM) added to the perfusion medium. […] For epi-fluorescence, the cells were excited with 450-490 nm filter and emission was monitored with a 510 nm longpass filter.

[4] = lumenal pH of 6 and an external pH of 8; cited from earlier work
MCF-7/ADR cells [5] = assay: Cell viability assay of Adriamycin sensitivity (Hoechst 33258 DNA content); settings: for effect on sensitivity of drug-resistant cells to Adriamycin: MCF-7/ADR (MCF-7adr) cells, agent co-incubated with adriamycin for 6 hours
Description: After 6 hours, the media was removed, the cells rinsed, and then fed with fresh media not containing drugs. […] Media was aspirated and the wells rinsed with Hanks Balanced Salt Solution (HBSS, phenol red free). The cells were sonicated in hypotonic media (0.1×HBSS) for 30 seconds. […] Calf thymus DNA was used for calibration.
Cell viability assays: The media was removed 60 hr. after plating the cells and replaced with fresh media supplemented with various concentrations of adriamycin (Calbiochem, CA) and monensin (solubilized in DMF 0.1%) (Sigma, St. Louis). After 6 hr the media was removed, the cells rinsed, and then fed with fresh media not containing drugs. […] Media was aspirated and the wells rinsed with Hanks Balanced Salt Solution (HBSS, phenol red free). The cells were sonicated in hypotonic media (0.1×HBSS) for 30 seconds. […] Calf thymus DNA was used for calibration.
Cell Viability Assays: Cell viability was assayed by plating cells at ˜1000 cells/well in 24 well plates (Falcon) in DME. […] The cells were fed daily for three days and then cell viability was quantified with two independent techniques: an assay of total DNA and an assay of volume of viable cells. […] Calf thymus DNA was used for calibration.
After three days cell viability was assayed.

MCF-7/ADR cells [6] = assay: Organelle-specific pH measurements with targeted SNARF and FITC probes in living cells; assay type: cell-based, human; settings: MCF-7/ADR cells; SNARF 70 kD dextran; Tamoxifen at 10 μM
Description: Organelle-specific pH measurements: The pH was measured in selective cellular compartments by targeting ratiometric pH probes to specific organelles. […] Using a Nikon epifluorescence microscope with a intensified CCD camera, the pH probe FITC was excited alternately at 450 nm and 490 nm and emission recorded with a 520/10 bandpass filter. […] In short, to calibrate the pH for the endosomal system, the chamber was perfused with 150 mM sodium buffers at pH of 5, 6 or 7 containing of monensin (20 μM) and nigericin (10 μM) for 5 minutes before recording the fluorescence. For the pH calibrations of cytosol and nucleoplasm, the cells were incubated in 140 mM potassium buffers at pH 6.0, 6.5, 7.0 and 7.5 containing nigericin (20 μM).
After endocytosis, the transferrin is transported through the endosomes and then recycled back to the surface without passage through the lysosomes.
pH in the lysosomes: The pH in the lysosomes was assayed both with light and electron microscopy. […] The pH was calibrated as described above. […] The cells were incubated one hour at room temperature, washed with several changes of PBS pH 7.4 containing 50 mM NH4Cl. […] The cells were embedded in LR White in gelatin capsules and baked at 60° C. for 24 hours in a vacuum oven, sectioned and incubated overnight at 4° C. with anti-DNP antibodies in 4% FBS, washed and incubated in gold (10 nm) labeled secondary antibodies for 2 hours. They were then stained and visualized under the electron microscope.
Cells were plated on polystyrene plates at 50% confluency. Twenty-four to thirty-six hours later, the medium was aspirated and the cells were covered with 50 μl of DME with SNARF-dextran (10 mg/ml). The cells were quickly scraped off the polystyrene and placed in pre-chilled tubes containing 1 ml DME without serum. The cells were harvested (100 g for 5 minutes), washed twice with pre-chilled DME, and plated on Lab-Tek chambers in DME with serum. The cells were allowed to recover for 24 hours prior to examination on a confocal microscope. The pH was calibrated from SNARF fluorescence as described above.
pH in the nucleus: The nucleoplasmic pH was probed by loading the cytosol with SNARF conjugated to a 10 kD dextran. This dextran is too large to cross cellular membranes, but can enter the nucleoplasm by diffusion across the nuclear pores. Confocal fluorescence microscopy was used to prepare optical sections through the cell allowing the fluorescence intensity of the nucleoplasm and cytoplasm to be quantified. The 10 kD SNARF-dextran was loaded into the cytosol and imaged using the same techniques for the 70 kD SNARF-dextrans (see above).

CO/C1=C\C(C)=C\[C@@H](C)[C@@H](O)[C@@H](C)C/C(C)=C/C=C/[C@H](OC)[C@@H]([C@@H](C)[C@@H](O)[C@H](C)[C@@]2(O)C[C@@H](O)[C@H](C)[C@@H](C(C)C)O2)OC1=O [Bafilomycin A1]
acidification of pre-treated microsomes ([1]; Tamoxifen 8 μM, Bafilomycin A1 10 nM, monensin concentration not given): blocked acidification
rate of dissipation of the pre-existing pH gradient [1]: dissipated the pH gradient at a much slower rate
acidification blocked ([1]; at one tenth of 100 nM): 95%
red-orange acridine orange fluorescence of cytoplasmic organelles after addition of agent (MCF-7/ADR cells [2]): the punctate red labeling of acidic organelles was lost; also recorded: disappearance of punctate red-orange cytoplasmic fluorescence
Adriamycin distribution after addition of agent (MCF-7/ADR cells [3]): redistributed Adriamycin to the nucleoplasm; also recorded: substantially decreased in all cytoplasmic compartments and increased in the nucleoplasm

COc1cccc2c1C(=O)c1c(O)c3c(c(O)c1C2=O)C[C@@](O)(C(=O)CO)C[C@@H]3O[C@H]1C[C@H](N)[C@H](O)[C@H](C)O1 [Adriamycin]
time for Adriamycin accumulation to reach a steady-state distribution (MCF-7/ADR cells [3]; MCF-7 and MCF-7/ADR cells): approximately 60 minutes
accumulation in a liposome [4]: approximately 100 fold
cell death (MCF-7/ADR cells [5]; 1 μM Adriamycin, absence of Tamoxifen, 6 hours exposure, assayed after three days): less than 20%

N=C(N)NC(=O)c1nc(Cl)c(N)nc1N [amiloride]
effect on sensitivity of drug-resistant cells to Adriamycin (MCF-7/ADR cells [5]): functioned in a similar manner

C[C@H]1CCC/C=C/[C@@H]2C[C@H](O)C[C@H]2[C@H](O)/C=C/C(=O)O1 [Brefeldin A]
effect on sensitivity of drug-resistant cells to Adriamycin (MCF-7/ADR cells [5]): did not affect drug sensitivity

CO[C@@H]1C[C@@H](C[C@H]2CC[C@H](C)[C@H]([C@@H](C)C(=O)O)O2)O[C@]2(O[C@](C)([C@H]3CC[C@@](C)([C@@H]4O[C@@H]([C@H]5O[C@@](O)(CO)[C@H](C)C[C@@H]5C)C[C@@H]4C)O3)C[C@H]2C)[C@@H]1C [Nigericin]
rate of dissipation of the pre-existing pH gradient [1]: significantly faster than tamoxifen
acridine orange staining of acidic vesicles after treatment (MCF-7/ADR cells [2]; MCF-7adr (Examples 2, 3), nigericin 7.5 μM, tamoxifen 50 μM): eliminated fluorescent staining of both cytoplasmic vesicles and vesicles within the pericentriolar region; also recorded: immediate loss of orange/red fluorescence
effect on sensitivity of drug-resistant cells to Adriamycin (MCF-7/ADR cells [5]): functioned in a similar manner

COc1ccc(CCN(C)CCCC(C#N)(c2ccc(OC)c(OC)c2)C(C)C)cc1OC (stereo not shown) [verapamil]
shift of cytosolic pH, more alkaline (MCF-7/ADR cells [6]): no measurable effect on cytosolic pH
red-orange acridine orange fluorescence of cytoplasmic organelles after addition of agent (MCF-7/ADR cells [2]): loss of the red-orange cytoplasmic fluorescence
Adriamycin distribution after addition of agent (MCF-7/ADR cells [3]): shifted Adriamycin from punctate cytoplasmic organelles to a diffuse cytoplasmic and nucleoplasmic distribution
